The subject of this assay is mice with constipation. Kind of assay: Loperamide constipation model: fecal water content and first black stool defecation time. It counts as in vivo, BALB/c mice. As to conditions: loperamide 10 mg/kgBW constipation, vs model group.

From the text: 40 SPF male BALB/c mice (20-25 g) were randomly divided into 5 groups: a blank control group, a constipation model control group, a Lactobacillus fermentum CCFM1051 intervention group, a Lactobacillus plantarum control group and a phenolphthalein treatment group with 10 mice in each group. The freeze-dried Lactobacillus fermentum CCFM1051 powder was resuspended in skim milk powder to prepare a bacterial suspension with a concentration of 4.0×10^9 CFU/mL. […] The fecal water content was calculated by using the following formula: Fecal water content (%)=(wet weight of feces−dry weight of feces)/wet weight of feces×100. On the morning of the 17th day, the mice in the blank control group were gavaged with normal saline, the mice in the other groups were gavaged with loperamide, after the gavage for 1 h, all the mice were gavaged with 0.25 mL of an activated carbon arabic gum aqueous solution, each mouse was separately placed in a clean stainless steel cage covered with absorbent paper, time (min) from start of the gavage with the activated carbon to defecation of first black stool was recorded as first black stool defecation time to evaluate an effect of the Lactobacillus fermentum CCFM1051 on constipation of the mice, and during the period, the mice ate and drank freely.

For `O=C1OC(c2ccc(O)cc2)(c2ccc(O)cc2)c2ccccc21` [phenolphthalein], the fecal water content entry is listed as “extremely significantly increased”. Also, where the note is “activated carbon gavage”, the “first black stool defecation time” value was “significantly shortened”.

(Values after patent US12364722B2, “Multifunctional lactobacillus capable of relieving PFOA toxic effects and application thereof” (priority 2019, dated 2025).)
